The structures appear in SMILES notation.

The values that follow come from paper PMC10173323 (ACS Omega, 2023).

The target of the assay is DNA gyrase (Escherichia coli, UniProt P0AES4+P0AES6). As to the kind of experiment: DNA supercoiling gel assay. Format: biochemical.
Chain of DNA gyrase (P0AES4 2-875, one chain of several): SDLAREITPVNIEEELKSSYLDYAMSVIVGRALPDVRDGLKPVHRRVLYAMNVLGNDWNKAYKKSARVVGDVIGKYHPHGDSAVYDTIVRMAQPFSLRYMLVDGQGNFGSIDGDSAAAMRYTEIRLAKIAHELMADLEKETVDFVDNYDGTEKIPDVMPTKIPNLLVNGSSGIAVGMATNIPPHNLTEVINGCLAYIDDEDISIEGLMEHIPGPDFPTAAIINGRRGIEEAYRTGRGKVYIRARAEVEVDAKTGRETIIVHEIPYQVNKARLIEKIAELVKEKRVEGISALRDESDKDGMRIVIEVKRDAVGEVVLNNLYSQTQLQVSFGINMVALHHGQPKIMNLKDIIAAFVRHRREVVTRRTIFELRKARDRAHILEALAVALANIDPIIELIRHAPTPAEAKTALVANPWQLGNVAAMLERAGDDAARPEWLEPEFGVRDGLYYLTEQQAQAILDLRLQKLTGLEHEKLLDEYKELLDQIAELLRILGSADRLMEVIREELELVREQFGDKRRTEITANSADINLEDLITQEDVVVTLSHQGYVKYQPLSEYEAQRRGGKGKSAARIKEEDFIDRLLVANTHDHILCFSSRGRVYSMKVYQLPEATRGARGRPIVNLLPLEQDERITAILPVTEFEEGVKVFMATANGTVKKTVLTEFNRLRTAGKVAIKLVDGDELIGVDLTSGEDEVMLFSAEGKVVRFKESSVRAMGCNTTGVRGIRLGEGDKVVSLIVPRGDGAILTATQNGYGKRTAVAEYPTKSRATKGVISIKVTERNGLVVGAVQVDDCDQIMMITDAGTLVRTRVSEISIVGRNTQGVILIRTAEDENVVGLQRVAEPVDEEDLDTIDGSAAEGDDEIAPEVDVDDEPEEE

Turning to `COc1c2occc2c(OC)c2c(=O)cc(C)oc12` [khellin], the IC50 is 3.16 µM.

With `O=c1c(-c2ccc(O)cc2)coc2cc(O)ccc12` [daidzein], half-maximal inhibition (IC50) required 0.165 µM.

What is called IC50 is the concentration that gives 50% inhibition.
